Experimental data from patent US20120252721A1 (priority 2011, published 2012).
pEC50: −log10 of the molar value.

Test system: HCV genotype 4a NS5A within the 1b-replicon
Experiment: Luciferase replicon assay, NS5A-intergenotypic stable cell line genotype 4a
Format: cell-based
Conditions: Hepatitis C virus, read-out: EC50 4a
Excerpt: The nucleotide sequences of the NS5A region of genotype 2a (GenBank Accession # AB047639), genotype 3a (GenBank Accession #D17763), and genotype 4a (GenBank Accession# DQ418788) were synthesized by an outside vendor. The NS5A region of each of these genotypes included the first 11 amino acids of the protease recognition sequence of genotype 1b, as well as the last 10 amino acids of genotype 1b. The NS5A gene cassettes were excised with site specific restriction endonucleases and ligated into a ZS11-luciferase genotype 1b backbone (backbone contains the genotype 1b NS3 protease, NS4a, NS4b, and NS5b coding regions) with similarly cut restriction enzyme sites. Thus, the newly constructed plasmid contains a genotype 2a-, 3a- or 4a-specific NS5A gene within the 1b-replicon.
These new intergenotypic plasmids were used to establish stable cell lines. RNA was generated from the NS5A intergenotypic plasmids and used in conjunction with a lipofectin reagent to transfect a cured Huh7 cell line. Transfected cells were selected for with G418. After selection has occurred the stable cell lines were propagated, tested for luciferase activity, and RT-PCR with genotype specific primers (either 1a, 2a, 3a, or 4a). Stable cell lines containing the intergenotypic replicon were then fully sequenced and analyzed for proper expression of NS3, NS5A and NS5B proteins.
Drug titration analysis was performed using the luciferase replicon assay described herein.
The HCV luciferase replicon assay measures the ability of a test compound to inhibit HCV replication in cell culture after 3 days of treatment in a human hepatoma cell line (Huh-7) bearing an HCV replicon containing a luciferase-neomycin phosphotransferase fusion gene. The inhibition of HCV replication was measured by quantification of luciferase protein expression. Briefly, Huh-7 cells containing either the HCV genotype 1a H77 strain or genotype 1b Con1 strain subgenomic luciferase replicon (H1a-luc or Zluc, respectively) were grown in DMEM containing glucose, L-glutamine and sodium pyruvate, 10% fetal bovine serum (FBS), 100 IU/mL penicillin, 100 μg/mL streptomycin, 2 mM GlutaMAX, non-essential amino acids and 0.25 (H1a-luc) or 0.5 (Zluc) mg/mL G418. GlutaMAX was obtained from Invitrogen, Corp.; all other media reagents were obtained from Mediatech, Inc. For dose-response testing, the cells were seeded in 96-well plates at 1×10^4 (H1a-luc) or 7.5×10^3 (Zluc) cells/well in a volume of 50 μL, and incubated at 37° C./5% CO2. Three hours after plating, 50 μL of ten 5-fold serial dilutions of compound were added, and cell cultures were incubated at 37° C./5% CO2 for 72 hours. In all cases, Huh-7 cells lacking the HCV replicon served as negative control. To assess luciferase expression, the media/compound was removed from the plates and ONE-glo Luciferase assay reagent (Promega) was added to each well. The assay plates were shaken for 3 minutes at room temperature and luciferase activity for each well was measured with a 1 sec read time on the Victor^3V multilabel counter using a 700 nm cut-off filter (Perkin Elmer). EC50 values were calculated from dose response curves from the resulting best-fit equations determined by Microsoft Excel and XLfit 4.1 software.

COC(=O)N[C@H](C(=O)N1CCC[C@H]1c1ncc(-c2ccc(-c3csc4c(-c5cnc([C@@H]6CCCN6C(=O)[C@@H](NC(=O)OC)C(C)C)[nH]5)csc34)cc2)[nH]1)C(C)C [Compound A15, [(S)-1-((S)-2-{4-[4-(6-{2-[(S)-1-((S)-2-methoxycarbonylamino-3-methyl-butyryl)-pyrrolidin-2-yl]-3H-imidazol-4-yl}-thieno[3,2-b]thiophen-3-yl)-phenyl]-1H-imidazol-2-yl}-pyrrolidine-1-carbonyl)-2-methyl-propyl]-carbamic acid methyl ester]
pEC50: > 10.00
